Assay [1] is described as follows: Sensory evaluation of taste quality of beverage samples (sweetness on-set, lingering sweet aftertaste, bitterness, lingering bitter aftertaste). Type of assay: in vivo, human. Particulars: beverage samples in pure water adjusted to Brix 5 in terms of sugar, compared with Reb.A, Reb.D, Reb.M and sugar.
Source text: In order to evaluate the taste quality of various steviol glycosides, Reb.A, Reb.D, Reb.M, sugar and Novel steviol glycoside A (Compound 15) were each added to pure water to prepare beverage samples. All of the beverage samples were adjusted to have final sweetness level (Brix) of 5 in terms of sugar (sucrose), and thus the sweetness levels of Reb.A, Reb.D, Reb.M and Novel steviol glycoside A (Compound 15) were 312, 317, 341 and 354, respectively.
(§1) The resulting beverage samples were subjected to sensory evaluation for rating the attributes, which were sweetness on-set, lingering sweet aftertaste, bitterness and lingering bitter aftertaste. Panelists who had been trained about sensory attributes of sweeteners (7 members) evaluated based on the following evaluation criteria. For each evaluation item, the steviol glycosides were scored in 0.5 increments provided that the score of sugar was 3. A higher score represents faster sweetness on-set, shorter lingering sweet aftertaste, less bitterness and shorter lingering bitter aftertaste. The evaluation scores shown in the diagram are the average scores of the scores from the 8 panelists.
In order to evaluate the taste quality of various steviol glycosides, Reb.A, Reb.D, Reb.M, sugar and Novel steviol glycoside B (Compound 17) were each added to pure water to prepare beverage samples. All of the beverage samples were adjusted to have final sweetness level (Brix) of 5 in terms of sugar (sucrose), and thus the sweetness levels of Reb.A, Reb.D, Reb.M and Novel steviol glycoside B (Compound 17) were 288, 310, 324 and 250, respectively.
as §1, with “shorter lingering aftertaste. The” for “shorter lingering bitter aftertaste. The”, “from the 6 panelists.” for “from the 8 panelists.”

Assay [2] in a line: Evaluation of sweetness level: choosing the sugar-added sample of equivalent sweetness intensity, trained panelists. Type of assay: in vivo, human. Particulars: for Sweetness level, Average / Sweetness level, Highest / Sweetness level, Lowest: 48 mg in 400 mL pure water vs sugar samples of Brix 3.0 to 5.0, relative to sugar; for sweetness compared with sugar (in words): in vivo. The protocol: In order to evaluate the sweetness levels of Novel steviol glycosides A and B, samples were prepared by adding sugar to pure water to give Brix of 3.0 to 5.0 in 0.5 increments. Compounds 15 and 17 obtained by the chemical syntheses were used as Novel steviol glycosides A and B, respectively, where 48 mg of each sample was dissolved in 400 mL of pure water to be tested. In addition, samples were also prepared for comparison by dissolving 48 mg of each of Reb.A, Reb.D and Reb.M in 400 mL of pure water.

For assay [3] the following is noted: background art; cited from earlier work.
Where [4] appears, read: evaluation of Novel steviol glycoside A (Table 10), 7 panelists.
Where [5] appears, read: evaluation of Novel steviol glycoside B (Table 11).

Structures are written as SMILES. Several values for one entry are separate records, joined by “and”; a condition that tells them apart may be missing. Equal entries are not always repeated.

With `C=C1CC23CCC4C(C)(C(=O)OC5OC(CO)C(O)C(O)C5OC5OCC(O)C(O)C5O)CCCC4(C)C2CCC1(OC1OC(CO)C(O)C(OC2OC(CO)C(O)C(O)C2O)C1OC1OC(CO)C(O)C(O)C1O)C3` (stereo not drawn) [Novel steviol glycoside A], in assay [1], the bitterness entry is listed as “less bitterness as compared to other components including sugar”, the lingering bitter aftertaste entry is reported as “shorter lingering bitter aftertaste as compared to other glycosides” and the lingering sweet aftertaste entry is on record as “less sweetness”. Also, in assay [1] (listed as Glycoside A), the bitterness entry was “weaker bitterness than other components including sugar”; the lingering bitter aftertaste entry was “less lingering sweet and bitter aftertastes”; the lingering sweet aftertaste result was “less lingering sweet and bitter aftertastes”. In assay [2] (average of panelists, 48 mg in 400 mL pure water), the “sweetness level higher in average than that of sugar” value is “about 354 times”. Also, in assay [2] (setting [4]), the “Sweetness level, Average” value was 354 and 354.1; the “Sweetness level, Highest” value was determined as 415.8; the “Sweetness level, Lowest” value worked out at 319.0. The “sweetness compared with sugar (in words)” value in assay [2] is listed as “sweeter than sugar”.
Regarding `C=C1CC23CCC4C(C)(C(=O)OC5OC(CO)C(O)C(OC6OC(CO)C(O)C(O)C6O)C5OC5OC(CO)C(O)C(O)C5O)CCCC4(C)C2CCC1(OC1OC(CO)C(O)C(OC2OC(CO)C(O)C(O)C2O)C1OC1OCC(O)C(O)C1O)C3` (stereo not drawn) [Novel steviol glycoside B], in assay [1], the bitterness entry was “weaker bitterness than other steviol glycosides”. In addition, the “sweetness compared with sugar (in words)” value in assay [2] is listed as “sweeter than sugar”.
As to `C=C1C[C@@]23CC[C@H]4[C@@](C)(CCC[C@@]4(C)C(=O)O[C@@H]4O[C@H](CO)[C@@H](O)[C@H](O)[C@H]4O)[C@@H]2CC[C@]1(O[C@@H]1O[C@H](CO)[C@@H](O)[C@H](O[C@@H]2O[C@H](CO)[C@@H](O)[C@H](O)[C@H]2O)[C@H]1O[C@@H]1O[C@H](CO)[C@@H](O)[C@H](O)[C@H]1O)C3` [Reb A, rebaudioside A], in assay [3], the “sweetness, times the sweetness of sugar” value was 350-450 times. For the same molecule, the “Sweetness level, Average” value in assay [2] (setting [4]) was found to be 312.0; in assay [2] (evaluation of Novel steviol glycoside A (Table 10), 7 panelists, listed as Reb.A), 312; in assay [2] (setting [5]), 288.3; in assay [2] (evaluation of Novel steviol glycoside B (Table 11), listed as Reb.A) it was 288. For the same molecule, the “Sweetness level, Highest” value in assay [2] (setting [4]) was 398.9; in assay [2] (setting [5]), 329.2. Moreover, the “Sweetness level, Lowest” value in assay [2] (setting [4]) worked out at 243.0; in assay [2] (setting [5]), 239.5.
With `C=C1C[C@@]23CC[C@H]4[C@@](C)(CCC[C@@]4(C)C(=O)O[C@@H]4O[C@H](CO)[C@@H](O)[C@H](O)[C@H]4O[C@@H]4O[C@H](CO)[C@@H](O)[C@H](O)[C@H]4O)[C@@H]2CC[C@]1(O[C@@H]1O[C@H](CO)[C@@H](O)[C@H](O[C@@H]2O[C@H](CO)[C@@H](O)[C@H](O)[C@H]2O)[C@H]1O[C@@H]1O[C@H](CO)[C@@H](O)[C@H](O)[C@H]1O)C3` [RebD, rebaudioside D], the “Sweetness level, Average” value in assay [2] (setting [4]) was 317.9; in assay [2] (evaluation of Novel steviol glycoside A (Table 10), 7 panelists, listed as Reb.D) it was 317; in assay [2] (setting [5]), 310.3; in assay [2] (evaluation of Novel steviol glycoside B (Table 11), listed as Reb.D) it was 310. In addition, the “Sweetness level, Highest” value in assay [2] (setting [4]) was determined as 398.0; in assay [2] (setting [5]), 393.6. Moreover, the “Sweetness level, Lowest” value in assay [2] (setting [4]) was 253.5; in assay [2] (setting [5]), 241.1.
Take `C=C1C[C@@]23CC[C@H]4[C@@](C)(CCC[C@@]4(C)C(=O)O[C@@H]4O[C@H](CO)[C@@H](O)[C@H](O[C@@H]5O[C@H](CO)[C@@H](O)[C@H](O)[C@H]5O)[C@H]4O[C@@H]4O[C@H](CO)[C@@H](O)[C@H](O)[C@H]4O)[C@@H]2CC[C@]1(O[C@@H]1O[C@H](CO)[C@@H](O)[C@H](O[C@@H]2O[C@H](CO)[C@@H](O)[C@H](O)[C@H]2O)[C@H]1O[C@@H]1O[C@H](CO)[C@@H](O)[C@H](O)[C@H]1O)C3` [RebM, rebaudioside M]: the “Sweetness level, Average” value in assay [2] (setting [4]) turned out to be 341.1; in assay [2] (evaluation of Novel steviol glycoside A (Table 10), 7 panelists, listed as Reb.M), 341; in assay [2] (setting [5]) it was 323.6; in assay [2] (evaluation of Novel steviol glycoside B (Table 11), listed as Reb.M), 324. The “Sweetness level, Highest” value in assay [2] (setting [4]) came out at 352.2; in assay [2] (setting [5]), 373.4. In addition, the “Sweetness level, Lowest” value is recorded as 286.0 in assay [2] (setting [4]) and 236.5 in assay [2] (setting [5]).
`C=C1C[C@@]23CC[C@H]4[C@@](C)(CCC[C@@]4(C)C(=O)O[C@@H]4O[C@H](CO)[C@@H](O)[C@H](O)[C@H]4O)[C@@H]2CC[C@]1(O[C@@H]1O[C@H](CO)[C@@H](O)[C@H](O)[C@H]1O[C@@H]1O[C@H](CO)[C@@H](O)[C@H](O)[C@H]1O)C3` [Stevioside]: the “sweetness, times the sweetness of sugar” value in assay [3] was 250-300 times.

Source of the values: US20220273008A1, “PLANT BODY CONTAINING NOVEL STEVIOL GLYCOSIDE” (SUNTORY HOLDINGS LIMITED, priority 2019, published 2022).
